Experimental data published in patent publication US5547956A, “Pharmaceutical composition and the method for treating drug addicts' withdrawal syndromes and detoxifying addicts by the same” (priority 1991, dated 1996).
Structures can show the parent of a compound that is named as a salt. Where two headings read alike, the source gives them in different places.

Key:
Morphine-dependent Mice = assay type: in vivo, mouse; conditions: for Jumping Mice/Survived Mice, Day 1 after stopping drug / Jumping Mice/Survived Mice, Day 4 after stopping administration / Jumping Mice/Survived Mice, Day 5 of treatment: nalorphine 50 mg/kg
Experimental: In the first 4 days, administration was given once per 6 hours, four times a day. From day 5 through day 7, administration was given once every 8 hours, three times a day. On day 5 and day 8 of treatment, respectively, subcutaneous injections of nalorphine (50 mg/kg) were made to […].

mice [1] = system: mice
Experimental: Male mice weighing 18~22 g were used for the test and divided into 3 groups (10 for every group). […] The second group of mice was given a subcutaneous injection of lappaconitine hydrobromide (8 mg/kg) for 20 days. The third group was a control group and was given physiological saline. 6 hours after being given the last dose, all the mice were given an intraperitoneal injection of 10 mg/kg allyl dromaran, and then were placed in a cone cylinder cage (diameter=30 cm, height=35 cm). The number of jumps for each mouse in 60 minutes was recorded.

mice [2] = system: mice; remark: listed apart in the source
Experimental: In another case, male mice weighing 18-22 g were divided into four groups (10 for every group). Two groups of mice were injected subcutaneously with lappaconitine hydrobromide 7 times within 2 days. The initial dosage was 3.5 mg/kg. Then, additional doses of 0.5 mg/kg and 1.0 mg/kg were given for every injection in each group, respectively. […] The initial dosage was 2.5 mg/kg and an escalating dose schedule of 5, 10, 20, 30, 40, 50 mg/kg was applied. The fourth group of mice was used as control group and was given physiological saline. Two hours after the last injection, all the mice of the above four groups were injected with 50 mg/kg nalorphine through the intraperitoneal cavity. The number of jumps within 10 minutes in each group of mice were recorded.

[3] = system: mice dependent on cocaine
Experimental: In the same way as described above, subcutaneous injection of cocaine (10 mg/kg) were given to the mice twice a day, and the injection was continued for 7 days.

Morphine-dependent rats = assay type: in vivo, Wister rat
Experimental: Wister male rats weighing 200-250 g were divided into 3 groups (10 for each group).
II Physiological saline 2 ml/kg. sc
III Lappaconitine hydrobromide 8 mg/kg. sc

[4] = assay type: in vivo, Wister rat; conditions: 5 or 10 mg/kg ip a day, 30 days
Experimental: Ten Wister rats weighing 200~250 g were divided into 2 groups (5 for each group). Each group was given intraperitoneal injection of 5 mg/kg or 10 mg/kg of lappaconitine a day, respectively. The injection was continued for 30 days. 5 wister rats of a control group were given subcutaneous injections of saline (2 ml/kg). […].

[5] = Acute Toxicity Test, mice; assay type: in vivo, mouse; conditions: for LD50: mouse, in vivo, read-out: LD50 (95 % confidence limit)
[6] = Acute Toxicity Test, rats; assay type: in vivo, rat
[7] = Subacute toxicity Test, monkeys; assay type: in vivo, Macca Mulatta
Experimental: Three Macca Mulatta weighing 2.75~4.75 kg were injected with lappaconitine subcutaneously twice a day. Initiated with 0.1 mg/kg, the dosage was increased successively to the highest tolerated dosage, 2 mg/kg within 50 days, and the last dosage was maintained to day 53, day 67 and day 92, respectively. The accumulated injective dosage was 196, 400 and 635 mg, respectively.

Macaca mulatta = test: Monkey addiction test (lappaconitine); assay type: in vivo
Experimental: Three of 6 Macaca mulatta weighing 2.75~4.75 kg were subcutaneously injected with lappaconitine twice a day. The initial dosage is 0.1 mg/kg, and the dose was successively escalated to the maximum tolerance dosage, 2 mg/kg within 50 days. Then, the tolerance dosage was maintained to the 53rd day, 67th day and 92nd day, respectively. […] On day 63 and day 92, the injections of lappaconitine to the monkeys was stopped. […] On day 29, 53, 59, 67 and 90, injections to the monkeys were discontinued and after 18 hours, subcutaneous injection of nalorphine (4 or 8 mg/kg) were given.

[8] = assay type: in vivo, Wister rat; conditions: 8 to 14 mg/kg ip escalated, until day 28
Experimental: Another ten Wister rats were medicated with successively escalated doses, in other words, the rats were first injected with lappaconitine (8 mg/kg) intraperitoneally. After one week with 10 mg/kg; after 2 weeks with 12 mg/kg; after 16 days with 14 mg/kg; and the last dose was maintained until day 28.

[9] = Acute Toxicity Test, monkeys; assay type: in vivo, Macca Mulatta
[10] = system: morphine-dependent monkeys
[11] = oral methadone vs injected morphine; cited from earlier work
[12] = 0.45 mg/g sc (so in the source)
[13] = 0.1 to 2 mg/kg sc twice a day, to day 53, 67 and 92
[14] = nalorphine 50 mg/kg, 2 days: lappaconitine initial 3.5 mg/kg, total 45.5 mg/kg, 5 mice tested

## CCN1CC2(O)CCC(OC)C34C1C(CC23)C1(O)CC(OC)C2CC4C1(O)C2OC (stereo not shown) [Lappaconine hydrobromide, lappaconine hydrobromide]
Morphine-dependent Mice; 5 mg/g (so in the source) sc
  Jumping Mice/Survived Mice, Day 1 after stopping drug: 0/10
  Jumping Mice/Survived Mice, Day 4 after stopping administration: 0/10
  Jumping Mice/Survived Mice, Day 5 of treatment: 0/10

## CCN1CC2(OC(=O)c3ccccc3NC(C)=O)CCC(OC)C34C1C(CC23)C1(O)CC(OC)C2CC4C1(O)C2OC (stereo not shown) [Lappaconitine hydrobromide, lappaconitine hydrobromide]
Mice [1]; mouse, in vivo
  behaviour after administration: looked quiet and immobile and showed no pilo-erection reaction
  jumping reaction after injection of allyl dromaran: no jumping reaction
Mice [2]; mouse jumping test
  drug dependence (conclusion of Table 4): does not cause drug dependence
Morphine-dependent Mice; [12]
  Jumping Mice/Survived Mice, Day 1 after stopping drug: 0/10
  Jumping Mice/Survived Mice, Day 4 after stopping administration: 0/10
  Jumping Mice/Survived Mice, Day 5 of treatment: 1/10
Morphine-dependent Mice; footnote *^3, 0.45 mg/g (so in the source) sc group, Day 5
  number of jumps of the one jumping mouse: five

## CCN1CC2(OC(=O)c3ccccc3NC(C)=O)CCC(OC)C34C1C(CC23)C1(O)CC(OC)C2CC4C1(O)C2OC (stereo not shown) [Lappaconitine]
[3]; mouse, in vivo
  recovery of cocaine-treated mice: recovered to normal
Morphine-dependent rats; rat, in vivo
  behaviour of morphine-withdrawn rats after injection: still looked suppressive
  weight change of morphine-withdrawn rats after injection: no weight increase was observed
Morphine-dependent rats; rat, in vivo, sc, 8 mg/kg
  substitution for morphine: did not act as a substitution for morphine
Mice [1]; mouse, in vivo
  jumping times of each mouse: 0.2
  number of jumping mice: 1
[4]
  electrocardiography examination: No obvious change
  hepatic and renal function and histological and pathological examination of viscera: No change was observed
  weight increase compared to control: inhibited weight increase at different levels
[5]; lethal dosage
  toxicity reactions at lethal dosage: paroxysmal convulsion, respiration suppression until suffocation, and death
[5]; intravenous injection
  LD50: 8.4 mg/kg
[5]; po, intra gasteria
  LD50: 32.4 mg/kg
[5]; sc, subcutaneous injection
  LD50: 11.7 mg/kg
[5]; toxicity dosages
  toxicity reactions: paroxysmal restlessness, and foreleg tic
[6]; intraperitoneal, toxicity dosage
  toxicity reactions: looked suppressive and immobile lying on stomach in cage, obvious suppression of respiration and showed convulsions before death
[6]; rat, in vivo, ip, intraperitoneal injection, read-out: LD50 (95 % confidence limit)
  LD50: 16.5 mg/kg
[7]; [13]
  Histological and pathological examinations: stimulating reaction, except a little edema and hydrodenaturation in the liver and increasing cerebral colloid cells
  electrocardiographic examination: No obvious change
  toxic reaction during administration: No toxic reaction
[7]; rhesus monkey, in vivo, monkey, sc twice a day, escalated from 0.1 mg/kg within 50 days, read-out: maximum tolerance dosage / highest tolerated dosage
  MTD: 2 mg/kg
Mice [2]; initial 3.5 mg/kg, total 45.5 mg/kg in 2 days, of 10 mice
  mice died of accumulated toxicity during the administration: five
Mice [2]; mouse, in vivo
  jumping times of each mouse: 0
  number of jumping mice: 0
Mice [2]; [14]
  jumping times of each mouse: 0
  number of jumping mice: 0
Macaca mulatta; 18 hours after discontinuing on day 29, 53, 59, 67 and 90, nalorphine 4 or 8 mg/kg sc
  withdrawal symptoms after nalorphine: No withdrawal symptoms were observed
Macaca mulatta; 24 hours following stop on day 63 and day 92
  behavior and appetite after stopping injections: no different behavior and appetite from that before stopping injection
Macaca mulatta; monkeys
  dependence after long term use: does not cause dependence after long term use
[8]
  weight increase compared to control: a little suppressed
[9]; 2 mg/kg sc, two monkeys
  toxic reaction and electrocardiography: No toxic reaction and no effect on electrocardiography were observed
[9]; 3 mg/kg sc
  electrocardiography examination: T wave had elevation, T wave and P wave fused, and R wave became smaller and notching
[9]; 3 mg/kg sc, 30 minutes after injection
  toxic reactions: restlessness, slobbering, increased swallowing, drooping eyelids, and rigidity of leg muscles
[9]; 3 mg/kg sc, from 45 minutes
  convulsion and death of one monkey: The convulsion still continued until death after 1 hr
[9]; 3 mg/kg sc, no convulsion
  duration of toxic reaction in the other monkey: 2 h
[9]; 3 mg/kg sc, surviving monkey
  electrocardiography examination next day: normal
[10]; in vivo
  effect on withdrawal symptoms of morphine-dependent monkeys: could not relieve or weaken the above withdrawal symptoms
[10]; in vivo, sc, 2 mg/kg
  substitute for morphine: does not act as a substitute for morphine

## CN1CC[C@]23c4c5ccc(O)c4O[C@H]2[C@@H](O)C=C[C@H]3[C@H]1C5.Cl [Morphine, morphine hydrochloride, reference compound]
Morphine-dependent rats; 24 hours after discontinuing morphine (25 mg/kg sc twice a day, 12 weeks)
  average weight loss per rat: 25 g
Morphine-dependent rats; morphine hydrochloride 25 mg/kg sc or lappaconitine hydrobromide 8 mg/kg sc
  behaviour of morphine-withdrawn rats after injection: turned to being excited from being suppressive, moved increasingly, frequently took food and water
Morphine-dependent rats; within 8 hours, morphine hydrochloride 25 mg/kg sc or lappaconitine hydrobromide 8 mg/kg sc
  weight change of morphine-withdrawn rats after injection: the weight increased to the level shown very quickly before stopping injection of morphine
Mice [1]; allyl-dromaran 10 mg/kg ip, 20 days: morphine 80 mg/kg (total 1600), lappaconitine 8.0 mg/kg (total 160)
  jumping times of each mouse: 34
Mice [2]; nalorphine 50 mg/kg, 2 days: morphine initial 2.5 mg/kg (total 157.5), lappaconitine initial 3.5 mg/kg (total 35)
  jumping times of each mouse: 9
[10]; Table 5, per monkey (No. 7, 8) and day
  Withdrawal Syndrome, Nalorphine 0.5 mg/kg sc: +
[10]; sc twice a day until the 30th day
  dependence in monkeys: showed dependence on morphine
[10]; sc, lappaconitine 2 mg/kg, 18 hours after stopping morphine
  effect on withdrawal symptoms of morphine-dependent monkeys: obviously reduced or disappeared

## CCN1CC2(OC(=O)c3ccccc3N)CCC(OC)C34C1C(CC23)C1(O)CC(OC)C2CC4C1(O)C2OC (stereo not shown) [N-deacetyllappaconitine hydrobromide, N-deacetyl-lappaconitine hydrobromide]
Morphine-dependent Mice; 5 mg/g (so in the source) sc
  Jumping Mice/Survived Mice, Day 1 after stopping drug: 0/10
  Jumping Mice/Survived Mice, Day 4 after stopping administration: 0/10
  Jumping Mice/Survived Mice, Day 5 of treatment: 0/10

## COC(=O)[C@H]1[C@@H](OC(=O)c2ccccc2)C[C@@H]2CC[C@H]1N2C [cocaine, reference compound]
[3]; 10 mg/kg sc twice a day, 7 days
  abnormal signs during injection of cocaine: anorexia, pilo-erection, and frequent walking with holding tail, and the like

## CCC(=O)C(CC(C)N(C)C)(c1ccccc1)c1ccccc1 (stereo not shown) [methadone]
[11]
  dependence potential of 100 mg of oral methadone: equivalent to that of 10 mg of injected morphine

## C=CCN1CC[C@]23c4c5ccc(O)c4O[C@H]2[C@@H](O)C=C[C@H]3[C@H]1C5 [nalorphine]
[10]; in vivo, sc
  effect of nalorphine on withdrawal symptoms: the above symptoms would be more obvious
